One test addresses DNA topoisomerase (Yersinia pestis, UniProt A0A2S9PM60). The experiment in a line: Yersinia topoisomerase I cleavage product accumulation – biochemical, cherry-pick, dose response (AID 588525).
In test [1] the test system is Candida albicans. The experiment in a line: resistant Candida growth with fluconazole co-treatment – CaCi-8 strain, Alamar Blue, dry powder, set 2, dose response (AID 488909). Type of test: functional, organism-based. In general terms: Alamar Blue is a resazurin reagent that responds to reducing activity.
Test [2] relates to Candida albicans. The experiment in a line: C. albicans growth inhibition with fluconazole – CaCi-2 strain, Alamar Blue, dry powder, set 4, dose response (AID 488943). Format: functional, organism-based.
For test [3], the system named is Candida albicans. Kind of test: fluconazole-resistant Candida strain growth inhibitors – CaCi-8 strain, dry powder, set 4, dose response (AID 488950). Format: functional, organism-based.
For the next test, the target named is Phospholipase A2 (Homo sapiens, UniProt P04054). Format: functional.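 Note: confirmatory dose-response counterscreen on phospholipase A2, testing hits that came from an ultra-high-throughput screen for ATG4B inhibitors.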
Sequence of Phospholipase A2 (P04054 whole entry): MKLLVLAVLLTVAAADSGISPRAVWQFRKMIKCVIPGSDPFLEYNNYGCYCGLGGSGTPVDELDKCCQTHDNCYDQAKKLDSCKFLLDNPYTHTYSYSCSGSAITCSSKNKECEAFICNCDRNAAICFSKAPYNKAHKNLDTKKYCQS
The next test addresses Cysteine protease ATG4B (Homo sapiens, UniProt Q9Y4P1). Format: functional.
The next test relates to INS1. Kind of test: INS-1E survival protection against cytokine death – cell-based, luminescence, retest, dose response (AID 449756).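 Note: cell death triggered by IL-1 beta plus TNF-alpha plus IFN-gamma mixture; protective hits raise ATP signal compared with cytokine alone wells.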 Format: functional. The note with it: Rattus norvegicus.
Test [4] is described as follows: NIH3T3 cell viability loss – ATP luminescence, mouse fibroblasts, counter-screen, dose response (AID 2010).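 Note: cells exposed to compound for about 90 hours before reading.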 Type of test: functional, cell-based. (Counterscreens check selectivity or assay interference.)
A short description of test [5]: reduction of Shn3 3'UTR-driven luciferase in osteoblasts – cell-based, Clone20 osteoblasts, firefly luciferase, cherry-picked, dose response (AID 624132).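 Note: firefly luciferase luminescence from reporter carrying the Shn3 3'UTR in osteoblasts.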 Type of test: functional.
Test [6] can be described thus: loss of viability in HepG2 cells – cell-based, CellTiter-Glo, cherry-picked, cytotoxicity control for Shn3 inhibitor project, dose response (AID 624134). Format: functional. (In general: Cellular ATP, detected with luciferase, serves as a proxy for viable cell number.)
In another test the target is Paired box protein Pax-8 (Homo sapiens, UniProt Q06710). The experiment in a line: PAX8 transcriptional activity inhibition in RMG-I – RMG-I cells, luciferase, cherry-pick, dose response (AID 687027).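 Note: luciferase reporter driven by Pax8 target thyroperoxidase promoter measured by SteadyGlo luminescence.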 Type of test: functional, cell-based.
Sequence of Paired box protein Pax-8 (Q06710 whole entry): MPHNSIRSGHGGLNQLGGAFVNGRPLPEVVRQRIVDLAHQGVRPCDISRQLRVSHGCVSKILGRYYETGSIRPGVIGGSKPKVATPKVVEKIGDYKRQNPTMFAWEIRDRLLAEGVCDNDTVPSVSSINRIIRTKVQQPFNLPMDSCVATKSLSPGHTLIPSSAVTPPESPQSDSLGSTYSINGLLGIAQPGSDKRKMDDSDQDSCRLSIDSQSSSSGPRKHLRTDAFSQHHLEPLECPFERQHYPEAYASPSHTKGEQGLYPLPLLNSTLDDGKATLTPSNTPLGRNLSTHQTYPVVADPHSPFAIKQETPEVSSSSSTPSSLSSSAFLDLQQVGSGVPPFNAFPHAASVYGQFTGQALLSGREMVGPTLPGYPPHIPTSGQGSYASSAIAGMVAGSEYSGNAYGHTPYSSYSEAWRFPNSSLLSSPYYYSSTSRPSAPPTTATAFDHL
The test system of test [7] is BJ. The experiment in a line: BJ-TERT-LT-ST fibroblast viability loss – cell-based, RAS-independent, luminescence, dose response (AID 1935).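 Note: BJ fibroblasts immortalized with TERT plus LT and ST oncogenes.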 The note with it: Homo sapiens. Type of test: functional.
The subject of the next test is Jurkat. The experiment in a line: SAR Analysis of small molecule inhibitors of T-cell specific antigen receptor-induced NF-kB activation in a Jurkat cell line using a luminescence assay - Set 2. [Related pubchem assays (depositor defined):AID435003, AID435012, AID465]. Format: functional, cell-based. The note with it: Homo sapiens.
The next test concerns the target Exodeoxyribonuclease V (Escherichia coli (strain K12), UniProt P04993+P07648+P08394). Kind of test: RecBCD inhibition via phage-restricted bacterial growth – absorbance, V66 E. coli, mutant T4 phage, counter-screen for AddAB inhibitor project, dose response (AID 492957). Format: functional, cell-based, Escherichia coli str. K-12 substr. MG1655.
Test [8] relates to BJ. The experiment in a line: cells. Format: functional, cell-based. The note with it: Homo sapiens.
For test [9], the system named is BJ. The experiment in a line: BJ-TERT fibroblast viability loss – cell-based, RAS-independent, luminescence, dose response (AID 1933). Type of test: functional. The note with it: Homo sapiens.
A short description of test [10]: cells. Type of test: functional, cell-based.
Test [11] can be described thus: Trypanosoma cruzi growth suppression in host cells – NIH3T3 host cells, beta-gal luminescence, confirmation (AID 2044).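 Note: intracellular parasites grown in NIH/3T3 mouse fibroblasts as host cells; luminescent beta-galactosidase reporter signal from transgenic T. cruzi replicating inside host cells; inhibitors lower the luminescence signal.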 Type of test: functional, cell-based.
Test [12] deals with HEK293. The experiment in a line: EBV LMP1 TES2 canonical NF-kB signalling blockers – cell-based, HEK293, luciferase, cherry-pick, dose response (AID 588343). Format: functional. As to conditions: Homo sapiens.
Test [13] is described as follows: non-specific 3'UTR reporter inhibition in Clone20-Shn3RL – cell-based, Renilla luciferase, cherry-picked, counter-screen for Shn3 inhibitor project, dose response (AID 624133). Type of test: functional.
Test [14] is described as follows: Counterscreen for AddAB inhibitors: absorbance-based bacterial cell-based high throughput dose response assay for inhibitors of bacterial viability. [Related pubchem assays (depositor defined):AID435030, AID449728, AID449731, AID488942, AID488955, AID488956]. Format: functional.
Test [15] can be described thus: HEK-293T viability loss after treatment – luminescence, T-cell screen hits, cytotoxicity control for TCR NF-kB inhibitor project, dose response (AID 489026).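 Note: cells exposed to compound about 14 hours before the viability readout.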 Format: functional, cell-based.
Test [16] concerns HEK293. The experiment in a line: SAR Analysis of small molecule inhibitors of T-cell specific antigen receptor-induced NF-kB activation in a HEK-293T cell line using a luminescence assay - Set 2. [Related pubchem assays (depositor defined):AID435003, AID435012, AID489026]. Type of test: functional, cell-based. The note with it: Homo sapiens.
In test [17] the target is Heat shock protein HSP 90-alpha (Homo sapiens, UniProt P07900). Type of test: functional, organism-based.
A short description of test [18]: DRD fibroblast viability loss – cell-based, non-viral oncogenic, luminescence, dose response (AID 1934). Format: functional. The note with it: Homo sapiens.
The subject of test [19] is HEK293. The experiment in a line: HEK293T cell viability loss, resazurin readout – resazurin fluorescence, cytotoxicity control for NF-kB activator project, SAR follow-up (AID 493251). Format: functional, cell-based. The note with it: Homo sapiens.
A short description of test [20]: cells. Type of test: functional, cell-based. The source holds these as a separate data set.
A short description of test [21]: Luminescence-based dose response cell-based high throughput screening assay for cytotoxic compounds using the IEC-6 intestinal epithelial cell line. [Related pubchem assays: 1858 (Summary AID.), 1825 (Counterscreen.), 1907 (Confirmation screen.)]. Type of test: functional.

SMILES strings stand for the structures. Activity calls are given as the source filed them. A value given as a limit tells only on which side of the number the result lay.

Sequence of Exodeoxyribonuclease V (P04993 whole entry): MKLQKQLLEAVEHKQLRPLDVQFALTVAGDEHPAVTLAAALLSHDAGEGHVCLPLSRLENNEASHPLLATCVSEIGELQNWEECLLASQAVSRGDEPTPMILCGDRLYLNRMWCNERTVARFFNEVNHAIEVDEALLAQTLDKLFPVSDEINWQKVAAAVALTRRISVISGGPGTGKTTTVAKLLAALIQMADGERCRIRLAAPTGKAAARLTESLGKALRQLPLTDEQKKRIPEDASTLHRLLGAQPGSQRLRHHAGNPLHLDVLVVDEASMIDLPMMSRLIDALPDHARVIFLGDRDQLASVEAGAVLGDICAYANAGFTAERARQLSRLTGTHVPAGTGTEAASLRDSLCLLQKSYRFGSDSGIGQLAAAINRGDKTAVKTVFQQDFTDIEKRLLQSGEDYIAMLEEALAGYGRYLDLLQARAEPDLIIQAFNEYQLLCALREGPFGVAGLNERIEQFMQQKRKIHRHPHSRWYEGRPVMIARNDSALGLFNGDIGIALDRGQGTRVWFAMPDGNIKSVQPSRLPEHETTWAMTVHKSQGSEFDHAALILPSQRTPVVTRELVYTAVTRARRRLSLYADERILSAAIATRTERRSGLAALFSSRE
Sequence of Exodeoxyribonuclease V (P07648 whole entry): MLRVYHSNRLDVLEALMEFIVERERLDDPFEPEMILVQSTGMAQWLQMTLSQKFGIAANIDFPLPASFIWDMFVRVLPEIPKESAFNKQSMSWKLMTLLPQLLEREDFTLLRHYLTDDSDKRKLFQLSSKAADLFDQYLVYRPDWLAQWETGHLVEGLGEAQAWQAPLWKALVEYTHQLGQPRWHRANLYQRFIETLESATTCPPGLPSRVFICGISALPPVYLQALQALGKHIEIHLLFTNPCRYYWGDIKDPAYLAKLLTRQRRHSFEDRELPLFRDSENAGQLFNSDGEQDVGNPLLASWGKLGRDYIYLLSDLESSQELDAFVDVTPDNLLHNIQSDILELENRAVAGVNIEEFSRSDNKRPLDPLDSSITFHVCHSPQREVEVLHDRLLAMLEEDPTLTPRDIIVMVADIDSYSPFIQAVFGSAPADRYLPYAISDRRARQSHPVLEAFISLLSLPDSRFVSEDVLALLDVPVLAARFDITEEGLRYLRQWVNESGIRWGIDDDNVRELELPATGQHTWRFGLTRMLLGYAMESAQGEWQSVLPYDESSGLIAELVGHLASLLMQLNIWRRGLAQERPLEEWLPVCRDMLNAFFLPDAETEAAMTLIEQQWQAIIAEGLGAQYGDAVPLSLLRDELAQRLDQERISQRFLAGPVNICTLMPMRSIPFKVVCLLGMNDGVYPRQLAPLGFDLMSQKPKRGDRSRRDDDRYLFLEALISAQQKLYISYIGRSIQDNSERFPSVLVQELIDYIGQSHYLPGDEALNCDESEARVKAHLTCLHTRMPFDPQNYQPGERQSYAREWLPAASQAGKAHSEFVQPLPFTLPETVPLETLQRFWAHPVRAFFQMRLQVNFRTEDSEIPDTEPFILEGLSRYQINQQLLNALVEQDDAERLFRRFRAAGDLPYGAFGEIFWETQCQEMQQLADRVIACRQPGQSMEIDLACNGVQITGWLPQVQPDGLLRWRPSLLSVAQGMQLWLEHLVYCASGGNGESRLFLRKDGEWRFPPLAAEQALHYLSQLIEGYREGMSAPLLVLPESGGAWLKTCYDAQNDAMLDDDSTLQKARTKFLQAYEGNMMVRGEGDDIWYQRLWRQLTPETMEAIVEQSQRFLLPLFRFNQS
Sequence of Exodeoxyribonuclease V (P08394 whole entry): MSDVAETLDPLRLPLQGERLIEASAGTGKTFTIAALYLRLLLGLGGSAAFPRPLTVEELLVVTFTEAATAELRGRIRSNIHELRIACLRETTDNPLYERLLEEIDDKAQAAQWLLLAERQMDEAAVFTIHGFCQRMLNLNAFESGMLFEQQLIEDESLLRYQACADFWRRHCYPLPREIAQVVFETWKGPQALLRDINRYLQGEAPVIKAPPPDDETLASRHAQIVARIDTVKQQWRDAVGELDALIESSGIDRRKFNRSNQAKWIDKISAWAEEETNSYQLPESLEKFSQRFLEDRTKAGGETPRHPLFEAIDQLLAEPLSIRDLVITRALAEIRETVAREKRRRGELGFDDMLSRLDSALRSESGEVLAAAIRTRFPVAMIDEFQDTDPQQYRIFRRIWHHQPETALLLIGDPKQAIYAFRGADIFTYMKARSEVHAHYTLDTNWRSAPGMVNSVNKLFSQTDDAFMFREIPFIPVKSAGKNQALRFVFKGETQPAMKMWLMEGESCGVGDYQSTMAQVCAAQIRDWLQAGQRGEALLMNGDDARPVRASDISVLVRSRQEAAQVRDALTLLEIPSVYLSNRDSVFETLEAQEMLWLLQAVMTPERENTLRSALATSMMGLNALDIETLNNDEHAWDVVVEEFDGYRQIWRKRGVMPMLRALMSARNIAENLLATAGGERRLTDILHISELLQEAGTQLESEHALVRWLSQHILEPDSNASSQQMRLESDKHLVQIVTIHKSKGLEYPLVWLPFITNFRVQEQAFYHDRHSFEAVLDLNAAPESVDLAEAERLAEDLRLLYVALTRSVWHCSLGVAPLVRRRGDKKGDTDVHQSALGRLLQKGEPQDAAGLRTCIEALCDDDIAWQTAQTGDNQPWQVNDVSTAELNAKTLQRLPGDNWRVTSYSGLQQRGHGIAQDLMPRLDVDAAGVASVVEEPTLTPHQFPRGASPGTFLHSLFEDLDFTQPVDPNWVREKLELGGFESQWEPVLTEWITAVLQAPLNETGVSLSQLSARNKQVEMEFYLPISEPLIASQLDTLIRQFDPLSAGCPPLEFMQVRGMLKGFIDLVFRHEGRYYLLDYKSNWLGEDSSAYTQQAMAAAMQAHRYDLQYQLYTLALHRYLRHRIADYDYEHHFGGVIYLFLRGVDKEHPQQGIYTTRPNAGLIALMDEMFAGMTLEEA
Sequence of DNA topoisomerase (A0A2S9PM60 whole entry): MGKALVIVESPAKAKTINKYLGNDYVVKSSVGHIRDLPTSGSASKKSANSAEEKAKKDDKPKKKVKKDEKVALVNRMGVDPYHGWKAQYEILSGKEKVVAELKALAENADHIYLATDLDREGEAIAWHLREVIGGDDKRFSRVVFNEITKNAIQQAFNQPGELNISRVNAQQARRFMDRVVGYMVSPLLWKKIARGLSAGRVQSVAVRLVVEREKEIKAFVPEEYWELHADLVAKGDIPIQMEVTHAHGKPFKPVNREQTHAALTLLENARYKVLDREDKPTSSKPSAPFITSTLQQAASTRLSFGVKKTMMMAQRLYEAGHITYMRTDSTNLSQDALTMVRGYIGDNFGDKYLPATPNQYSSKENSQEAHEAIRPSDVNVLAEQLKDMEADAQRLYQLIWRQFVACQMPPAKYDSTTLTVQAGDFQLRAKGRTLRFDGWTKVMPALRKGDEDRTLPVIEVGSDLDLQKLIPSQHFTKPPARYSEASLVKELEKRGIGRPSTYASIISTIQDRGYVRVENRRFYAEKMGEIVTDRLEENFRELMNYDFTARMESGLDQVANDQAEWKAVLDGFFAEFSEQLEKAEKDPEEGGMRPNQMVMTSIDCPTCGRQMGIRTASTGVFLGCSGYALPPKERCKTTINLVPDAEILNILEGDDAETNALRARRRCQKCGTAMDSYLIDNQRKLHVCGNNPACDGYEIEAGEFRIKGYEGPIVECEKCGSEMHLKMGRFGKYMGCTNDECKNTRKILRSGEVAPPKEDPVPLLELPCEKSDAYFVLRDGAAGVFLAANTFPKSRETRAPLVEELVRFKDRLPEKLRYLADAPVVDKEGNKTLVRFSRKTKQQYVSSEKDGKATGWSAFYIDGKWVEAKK
Sequence of Cysteine protease ATG4B (Q9Y4P1 whole entry): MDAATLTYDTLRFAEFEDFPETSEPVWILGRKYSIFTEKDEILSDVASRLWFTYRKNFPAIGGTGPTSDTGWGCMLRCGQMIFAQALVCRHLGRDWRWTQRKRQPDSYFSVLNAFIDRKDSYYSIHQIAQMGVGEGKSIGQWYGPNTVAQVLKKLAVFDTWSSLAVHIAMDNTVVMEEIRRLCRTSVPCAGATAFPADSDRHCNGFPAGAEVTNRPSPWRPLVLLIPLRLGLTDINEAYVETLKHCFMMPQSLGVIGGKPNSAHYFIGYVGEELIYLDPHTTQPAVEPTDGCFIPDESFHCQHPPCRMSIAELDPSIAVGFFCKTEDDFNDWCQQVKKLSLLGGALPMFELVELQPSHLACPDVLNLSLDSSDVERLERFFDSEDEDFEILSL

As to `Cc1c(C(=O)OCC(=O)N(CC(C)C)c2c(N)n(Cc3ccccc3)c(=O)[nH]c2=O)oc2ccccc12`, at DNA topoisomerase, the AC50 (commonly the concentration giving half of the maximal activity seen) was 9.46 µM (active).
Take `COc1ccc2c(N3CCN(C(=O)c4ccc(Cl)cc4)CC3)ccnc2c1`: the values for the AC50 in the test with Candida albicans [1], in the test on Candida albicans [2] and in the test on Candida albicans [3] were 18.4 µM (active), 12.4 µM (active) and 8.86 µM (active), respectively.
Consider `Cc1ccc(-n2c(SCC(=O)N/N=C/C=C/c3ccccc3[N+](=O)[O-])nc3ccccc3c2=O)cc1`, for which the IC50 (as a rule, the midpoint of a concentration-inhibition curve) on Phospholipase A2 was 2.53 µM (active); on Cysteine protease ATG4B, 6.42 µM (active).
Consider `CC(=O)NC(c1ccc(C(C)C)cc1)c1ccc2cccnc2c1O` (stereo not drawn), for which the AC50 with INS1 was 0.494 µM (active); in test [5], 0.528 µM (active); in [6] it was 1.3 µM (active); on Paired box protein Pax-8 it was 2.03 µM (active); in the test with HEK293 [12], 5.2 µM (active); in [13], 0.35 µM (active). Moreover, the AC50 in test [17] was 3.58 µM (active). The half-maximal effective concentration (EC50) – broadly, the concentration that produces a half-maximal response – is 0.424 µM (active) in test [4]; 8.47 µM (inconclusive) with BJ [7]; 2.29 µM (inconclusive) with BJ [8]; 0.958 µM (active) in the test on BJ [9]; 3.64 µM (active) in “cells [10]”; 0.337 µM (active) in [11]. Also, the results for the EC50 (in [18]; in “cells [20]”) were 8.18 µM (inconclusive) and > 350 µM (not active), respectively. The IC50 is 2.6 µM (active) in the test with Jurkat; > 118 µM (inactive) at Exodeoxyribonuclease V; > 118 µM (inactive) in test [14]; > 80 µM (inactive) in test [15]; 5.24 µM (active) in the test on HEK293 [16]; 56.1 µM (inactive) with HEK293 [19]. Further, in [21], the IC50 was 1.36 µM (active).

These data come from ChEMBL document CHEMBL1201862, “PubChem BioAssay data set” (2004).
